One data set has as its system OCT1. Put plainly: MTT reduction cell viability assay, OCT1-transfected HEK-293 cells. It counts as cell-based. The note with it: human, HEK-293 cells transfected with OCT1; 48 h exposure; read-out: EC50 (95% confidence interval), cell viability. (Tetrazolium assays rely on reduction of a dye to a coloured formazan, in cell work by metabolically active cells.)
For another data set, the system named is OCT2 mutant 400C variant. Put plainly: MTT reduction cell viability assay, HEK-293 cells expressing OCT2 mutant 400C variant. The note with it: human, 48 h exposure after 12 h incubation with cyclo(his-pro) 10 µmol/l, read-out: EC50 (95% confidence interval), cell viability. It counts as cell-based.
Data set [1] has as its system HEK-293 cells expressing empty vector. Put plainly: MTT reduction cell viability assay, empty vector transfected HEK-293 cells. It counts as cell-based, human. On the procedure: Cell viability was assessed in HEK-293 cells, human dopaminergic neuroblastoma cells (SH-SY5Y) and human glioblastoma cells (HTZ-146) by the MTT test as described.[22] […] For indication of metabolic activity, cells were treated with MTT reagent (15 µl of 1 mg/ml stock solution per well) for 1 h, and after drying of culture plates for 1 h at 37°C, the resulting formazan dye was extracted with isopropanol/HCl (100 µl 0.04 mol/l per well) and absorbance was determined spectrophotometrically at 568 nm. Results were in agreement with the data obtained by the tryptan blue exclusion method (data not shown).

Data set [2] concerns the target T1, OCT2 (wild-type 400R) (Homo sapiens, UniProt O15244, S270A).
T1 sequence (O15244 1-555 S270A): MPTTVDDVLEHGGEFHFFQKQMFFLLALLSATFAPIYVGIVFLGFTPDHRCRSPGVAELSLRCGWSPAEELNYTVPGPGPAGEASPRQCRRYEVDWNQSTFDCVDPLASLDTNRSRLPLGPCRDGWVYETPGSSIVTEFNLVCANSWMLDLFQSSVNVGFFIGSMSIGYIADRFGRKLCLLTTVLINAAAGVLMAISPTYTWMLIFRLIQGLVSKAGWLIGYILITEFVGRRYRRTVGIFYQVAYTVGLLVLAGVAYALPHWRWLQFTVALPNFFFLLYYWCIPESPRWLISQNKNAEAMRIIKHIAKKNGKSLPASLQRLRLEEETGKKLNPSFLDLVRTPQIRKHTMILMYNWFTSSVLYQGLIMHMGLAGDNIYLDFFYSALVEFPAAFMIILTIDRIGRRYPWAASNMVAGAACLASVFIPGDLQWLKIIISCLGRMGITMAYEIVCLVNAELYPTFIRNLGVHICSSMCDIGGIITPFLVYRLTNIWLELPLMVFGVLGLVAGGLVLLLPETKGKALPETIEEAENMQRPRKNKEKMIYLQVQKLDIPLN
Nature of the data set: Specific uptake into OCT2 (wild-type) transfected HEK-293 cells vs empty vector, LC-MS-MS. Conditions: human, pH 7.4.

The subject of data set [3] is HEK-293 cells expressing EMT. Nature of the data set: MTT reduction cell viability assay, EMT-transfected HEK-293 cells. The class given is cell-based. The note with it: Homo sapiens, HEK293; 48 h exposure; read-out: EC50 (95% confidence interval), cell viability.
For data set [4], the system named is OCT2 (wild-type 400R). Put plainly: MTT reduction cell viability assay, OCT2 (wild-type 400R) transfected HEK-293 cells. The class given is cell-based, human. Conditions: human, HEK-293 cells transfected with OCT2 (wild-type 400R); 48 h exposure, no pretreatment; read-out: EC50 (95% confidence interval), cell viability. The procedure:
(§1) Cell viability was assessed in HEK-293 cells, human dopaminergic neuroblastoma cells (SH-SY5Y) and human glioblastoma cells (HTZ-146) by the MTT test as described.[22] […] For indication of metabolic activity, cells were treated with MTT reagent (15 µl of 1 mg/ml stock solution per well) for 1 h, and after drying of culture plates for 1 h at 37°C, the resulting formazan dye was extracted with isopropanol/HCl (100 µl 0.04 mol/l per well) and absorbance was determined spectrophotometrically at 568 nm.

For data set [5] the following is noted: weak bases; cited from earlier work.
A further data set addresses T2, OCT2 (Homo sapiens, UniProt O15244, S270A).
T2 sequence (O15244 1-555 S270A): T1 sequence (O15244 1-555 S270A)
Nature of the data set: Substrate search: uptake from fetal bovine serum into OCT2-transfected vs control HEK-293 cells, ESI-LC-MS-MS. The note with it: 30 min incubation with 100% fetal bovine serum, OCT2 vs HEK-293 cells without OCT2.

Data set [6] deals with HEK-293 cells expressing OCT2. Nature of the data set: MTT reduction cell viability assay, OCT2 (wild-type 400R) transfected HEK-293 cells. It counts as cell-based, human. Conditions: cyclo(his-pro) 10 µmol/l, 12 h prior to salsolinol treatment. On the procedure: as §1

Each structure is given as a SMILES string. Bounds are passed on as bounds.

For orientation: EC50 means the concentration that produces a half-maximal response. The term Km denotes the concentration of substrate that gives half-maximal velocity. On to `CC1NCCc2cc(O)c(O)cc21` (stereo not shown) [salsolinol], for which the values for the EC50 at 48 h in the data set on OCT1, with OCT2 mutant 400C variant and in the data set on OCT2 (wild-type 400R) [4] were 627 µM, 406 µM and 192 µM, respectively. Besides, the EC50 in [1] (Homo sapiens, HEK293, 48 h exposure, no pretreatment, read-out: EC50 (95% confidence interval), cell viability) stood at 1110 µM; in [3] it was 998 µM. Further, the Km at 1 min at OCT2 (wild-type 400R) [2] was found to be 130 µM.

Turning to `O=C1NC(Cc2c[nH]cn2)C(=O)N2CCCC12` (stereo not shown) [cyclo(his-pro), histidyl-proline diketopiperazine], the pKS in data set [5] is recorded as 6.5–7.5. For the same molecule, the “specific uptake from serum, fold above the control” value at OCT2 is > 2 fold. Moreover, the “effect of pretreatment on salsolinol-induced degeneration” value in data set [1] (cyclo(his-pro) 10 µmol/l, 12 h prior to salsolinol treatment) is reported as “had no effect”; in [6], “prevented degeneration”.

These data come from paper PMC1851987, “Identification of the Endogenous Key Substrates of the Human Organic Cation Transporter OCT2 and Their Implication in Function of Dopaminergic Neurons” (PLoS ONE, 2007).
